Source: patent publication US11479604B2, “Immunomodulatory peptides and methods for modulating the immune system in a subject” (Recepta Biopharma S.A., priority 2017, dated 2022)
Positions of bridges follow the written chain, without caps; N, C: chain ends. No end group written: not given here.

Columns and labels:
[1] = tested on: B16F10-Nex2 melanoma cells; test: Syngeneic metastatic melanoma model, lung nodule count; assay type: in vivo, C57BL/6 mice; details: for antitumor activity (pulmonary nodules): alone, Rb9 300 μg 5 consecutive days, Imiquimod 50 μg 3 alternate days, CpG and Poly (I:C) two alternate days; for activity against metastatic melanoma of scramble peptides: 300 μg (10 mg/kg) i.p., alternate days, 5 doses, lungs after 14 days
Description: Male C57BL/6 mice, 6 to 8-week-old were obtained from the Center for Development of Experimental Models (CEDEME), Federal University of Sao Paulo (UNIFESP). For the in vivo metastatic model, C57BL/6 mice received one intravenous (i.v.) injection of 2×10^5 viable B16-F10-Next melanoma cells in 100 μL. […] The control group received 100 μL PBS. Twenty-two days later, mice (minimum n=3 per group) had their lungs harvested, and the number of macroscopic melanotic nodules were counted. The Ethical Committee of Federal University of São Paulo, Project no. 1234, 2011, approved all experiments with animals, according to International guidelines. For the subcutaneous model, mice were injected with 5×10^5 tumor cells suspended in 100 μL of PBS in the right flank via the subcutaneous route. The peptide (300 μg) was solubilized in 10 μL of distilled H2O and 90 μL of PBS and injected per mouse via the intraperitoneal route. The administration of the peptide was performed in 5 alternate days initiating one day after tumor challenge. Tumor longitudinal diameter (D) and transverse diameter (d) were measured every 2 days until the tumor volume reached 3,000 mm3. Animals were sacrificed when the allowed volume was reached. Volume was calculated using the formula v=Dd^2×0.52. Tumor Cell Growth In Vitro and In Vivo Details of the in vitro tumor cell growth, cytotoxicity tests, determination of viable cells and in vivo protection experiments with B16F10 cells in a mouse metastatic model are described in Polonelli et al. (PLoS One. 3(6):e2371, 2008) and Dobroff et al. (Transl. Onc., 3: 204-217, 2010).
6 to 8 Week-old C57BL/6 mice (n=5, per group) were intravenously challenged with 1×10^5 of syngeneic B16F10-Nex2 viable cells in 0.1 mL of RPMI medium without FBS, and treated on the next day with intraperitoneal doses of 300 μg (10 mg/kg) each, of Scr1, Scr2, Scr3 or Scr4 peptide or with the control vehicle (PBS) in alternate days, total of 5 doses. After 14 days, mice were euthanized, and lungs were harvested and assessed for metastatic colonization. The number of metastatic lesions was quantified using a stereo microscope (Nikon, Tokyo). The percentage of the tumor area/total area was also quantified by ImageJ software.
B16F10-Nex2 tumor cells (2×10^5) in RPMI (100 μl) were injected in both animal groups in the tail veins on day 0. Animals were sacrificed on day 22, or 10 days after the last administration of the peptide, and their lungs were examined for dark melanotic nodules.
C57Bl6 mice were intravenously challenged with 4×10^5 syngeneic B16F10-Nex2 cells in 0.1 ml of RPMI without FBS.
Mice were injected with 5×10^5 B16F10-Nex2 cells i.v. suspended in 100 μl PBS. […] Imiquimod at 50 μg/100 μl was injected i.p. in 3 alternate days; CpG ODN 1585, i.p., in two alternate days; and Poly (I:C), i.p., in two alternate days. After 15 days of tumor challenge, the animals were sacrificed, the lungs were removed and the pulmonary nodules were counted.

[2] = tested on: CD11c+, MHC II+ bone marrow DCs; test: Marker expression of bone marrow DCs with or without Poly I:C (flow cytometry); assay type: cell-based, C57Bl6 mice; details: 60 h
Description: DCs were obtained from the bone marrow of 6 to 8-week-old C57Bl6 mice. Briefly, femora and tibiae from mice were removed and stripped of muscles and tendons; both bone ends were cut and bone marrow was flushed out with RPMI 1640 medium using a 21-gauge needle and syringe. Cell clusters were dissociated by passing through a cell strainer and 0.45 M ammonium chloride was added for red cell lysis. After washing the cell suspension twice in RPMI 1640, 10×10^6 bone marrow cells per well were cultured in non-treated tissue-culture 6-well plates with 4 ml of complete medium (RPMI 1640 supplemented with 2 mM glutamine, 10,000 U/mL penicillin, 10 mg/mL streptomycin, 50 μM 2-mercaptoethanol, 10% heat-inactivated fetal calf serum with GM-CSF (50 ng/ml). Half of the medium was removed on day 2 and new medium supplemented with GM-CSF (100 ng/ml) and warmed at 37° C. was added. The culture medium was entirely discarded on day 3 and replaced by fresh warmed medium with GM-CSF (50 ng/ml). On day 6, non-adherent cells in the culture supernatant and loosely adherent cells harvested by gentle washing with PBS were pooled and used as the starting cell source for the experiments.
For murine cell analysis, these were stained in ice-cold PBS containing BSA (0.5%) and EDTA (2 mM) using appropriate antibody-fluorophore conjugates. Multiparameter analysis was performed on a BD FACSCanto II analyzer (BD Biosciences) and analyzed with FlowJo software (Tree Star). The following antibodies were used: anti-MHC Class II, anti-CD11c, anti-CD8a, anti-CD3e, anti-CD4, anti-CD86, anti-CD40, anti-CD80, Prior to acquisition, cells were resuspended in PBS/BSA 0.5%/EDTA (2 mM).
DCs were centrifuged and washed once with MACS buffer. Cells (10^6) were resuspended in 45 μl of buffer and 5 μl of antibodies/fluorophore, CD11c APC, MHC II PE, CD80 FITC, CD86 VioBlue and CD40 PE. The samples were acquired in BD FACS Canto II using the FacsDiva software. The data were analyzed by using the FlowJo software.

[3] = tested on: LPS stimulated DCs characterized by CD11c+ MHC-II+; test: Co-stimulatory markers of LPS stimulated murine bone-marrow DCs; assay type: cell-based
Excerpt: Rb9 immunomodulation of murine bone-marrow dendritic cells (DCs) was also examined focusing on co-stimulatory markers.

[4] = tested on: T lymphocytes of lungs, spleen and lymph nodes; test: Flow cytometry of Treg, T-CD4+ and T-CD8+ cells after prophylactic DC protocol; assay type: in vivo, mice; details: spleen and lymph nodes (except lungs), day 29, DCs stimulated by peptide
Description: On day 14, mice were inoculated i.v. with B16F10.Nex2 melanoma tumor cells and on day 29, lungs, spleen and cervical and axillary lymph nodes were examined for CD3+ cells, and the proportion of T-CD4+ and T-CD8+ cells.
The lungs were incubated with 2 mg/ml of collagenase for 40 min at 37° C. before maceration. The cell suspension was incubated with cold hemolytic buffer for 1 min and then centrifuged. The pellet was suspended with RPMI medium and counted. 1×10^6 Cells of each group were processed and stained using the Treg Detection Kit (Miltenyi Biotec, Cambridge, USA). Lymphocytes were characterized using anti-CD4 (FITC), anti-CD25 (PE) and anti-Foxp3 (APC). Samples were analyzed by flow cytometry using FACSCantoII (Becton Dickinson, San Jose, Calif., USA). Acquired data were analyzed using the FlowJo V10 (TreeStar Inc., Ashland, Oreg., USA). The percentages of Foxp3^+ in CD4^+CD25^+ lymphocytes are indicated.
The cell suspension was incubated with cold hemolytic buffer for 1 min and then centrifuged. The pellet was suspended with RPMI medium and counted. 1×10^6 Cells of each group were stained with anti-CD3 (PE) and anti-CD4 (FITC) or anti-CD3 (PE) and anti-CD8 (FITC). All antibodies used were purchase from Miltenyi Biotec, Cambridge, USA. Samples were analyzed by flow cytometry using FACSCantoII (Becton Dickinson, San Jose, Calif., USA). Acquired data were analyzed using the FlowJo V10 (TreeStar Inc., Ashland, Oreg., USA). The percentages of CD4^+ or CD8^+ in CD3^+ lymphocytes are indicated.

[5] = tested on: CD11c+ cells; test: TGF-beta1 ELISA of CD11c+ cells from lymphoid organs of melanoma-bearing treated mice; assay type: in vivo, C57Bl6 mice; details: 300 μg/dose i.p., day 17
Description: Animals were sacrificed on day 17 and their lungs, cervical and axillary lymph nodes and spleen were processed for examination. Lymph nodes and spleen were macerated separately, DMEM was added and passed through a cell strainer. CD11c+ cells were isolated using mouse CD11c+ beads and magnetic sorting. Cells were suspended in R10 medium and plated in […] at 10^6 cells/well. Cells were incubated for 24 h with or without tumor cell lysate (B16F10 stimulus). The supernatant was used in a TGF-beta1 ELISA test.

[6] = tested on: splenocytes; test: Splenocyte cytokine production in melanoma-bearing treated mice (ELISA); assay type: in vivo; details: 300 μg i.p. 5 consecutive days
Description: Mice were challenged with 5×10^5 B16F10-Nex2 cells via the i.v. route. […] Peptides at 300 μg solubilized in 10 μl distilled H2O and 90 μl of PBS were injected via i.p. route per animal, for 5 consecutive days initiating one day after tumor cell challenge. Seventeen days after tumor challenge mice were sacrificed and spleens were removed. Splenocytes after incubation in hemolysis buffer were suspended in R10 medium and plated in 6-well plates and 10^6 cells/well. Cells were incubated for 72 h with or without tumor cell lysate (from 10^5 B16F10-Nex2 cells) in triplicate. The supernatants were collected, and cytokines measured by ELISA (FIG. 11).

[7] = tested on: B16F10-Nex2 melanoma cells; test: Prophylactic adoptive transfer of peptide-stimulated dendritic cells, metastatic melanoma; assay type: in vivo, syngeneic mice; details: DCs incubated with 50 μg/ml peptide, with or without tumor cell lysate; s.c.; tumor challenge day 14, count day 29
Description: DCs were obtained from the bone marrow of 6 to 8-week-old C57Bl6 mice. Briefly, femora and tibiae from mice were removed and stripped of muscles and tendons; both bone ends were cut, and bone marrow was extracted by placing the bone pieces into 1-ml tips, which in turn were inserted into 15-ml tubes and centrifuged for 10 minutes at 1500 rpm. Cells were resuspended in DMEM and cell clusters were dissociated by repeated pipetting. The total bone marrow cells were cultured in 100-mm treated tissue culture dish in 10 ml of R10 medium (DMEM medium supplemented with 2 mM glutamine, 10,000 U/ml penicillin, 10 mg/ml streptomycin, 50 μM 2-mercaptoethanol, 1 mM sodium pyruvate, MEM-nonessential aminoacids, MEM Vitamin solution, 10% heat-inactivated fetal bovine serum and GM-CSF (20 ng/ml) and IL-4 (40 ng/ml). Fresh medium (3 ml) with GM-CSF (200 ng/ml) and IL-4 (400 ng/ml) was added every 3 days. On day 7, adherent cells, that were harvested using PBS 2 mM EDTA, together with the non-adherent cells were pooled and used as the starting cell source for the experiments. BMDC Protocol 2
DCs were inoculated s.c. in syngeneic mice. On day 14, mice were inoculated i.v. with melanoma tumor cells (5×10^5 cells) and on day 29, the lung melanotic nodules were counted.

[8] = tested on: colorectal CT26 carcinoma cells; test: Subcutaneous syngeneic colorectal carcinoma model; assay type: in vivo, Balb/c mice
[9] = 100 μg/ml peptide + 12.5 μg/ml Poly I:C

Poly I:C [reference compound]
antitumor activity (pulmonary nodules) ([1]; i.p., 15 days after challenge): strongly active
antitumor activity of Poly I:C combined with Rb9 ([1]; i.p., 15 days after challenge): strongly active

[RATFAYWG], NH2 [Rb9-MID]
CD40 expression over Poly I:C [2, 9]: stimulated CD40 over Poly I:C much like Rb9
expression of MHC II over Poly I:C and Rb9 [2, 9]: significantly increased
expression of CD80 ([2]; 100 μg/ml peptide, with or without Poly I:C): similar

[AARGETARATFAYWGQG], NH2 [Rb10A1]
CD40 expression [3]: regulated CD40 expression
expression of CD80 and CD86 ([3]; Rb9 mainly at 50 μg/ml): significantly stimulated
proportion of T-CD8+ to T-CD4+ cells [4]: T-CD8+ cells greatly predominated over T-CD4+ effector cells
TGF-beta in tumor-lysate stimulated CD11c+ cells from the spleen [5]: markedly inhibited
TGF-beta secreted by lymph node CD11c+ cells ([5]; vs vehicle (PBS) control cells stimulated by melanoma lysate): fully inhibited
cytokine production in splenocytes (generally) [6]: downregulated
IL-12 production in splenocytes ([6]; no stimulus necessary): comparable in the three groups
protective effect of peptide-stimulated DCs (lung melanotic nodules) [7]: also protective against melanoma in the metastatic model but less effectively than Rb9

[CAEATYWRRGGQAAGFTC], NH2 (C-C) (CAEATYWRRGGQAAGFTC-NH2; disulfide 1-18 (inferred)) [Scr1, cyclic scramble peptide of Rb9]
activity against metastatic melanoma of scramble peptides [1]: activity similar to Rb9

CC(C)Cn1cnc2c(N)nc3ccccc3c21 [Imiquimod, reference compound]
antitumor activity (pulmonary nodules) ([1]; i.p., 15 days after challenge): Antitumor activities of Rb9 and Imiquimod were the same

[CARGETARATFAYWGQG], NH2 (CARGETARATFAYWGQG-NH2) [Rb10, linear peptide lacking terminal cysteine]
subcutaneous tumor growth ([8]; CT26 cells of high virulence (Argentina cell line), 5 alternate days): delayed
survival time ([8]; CT26 cells of high virulence, H-2^d syngeneic animals): prolonging the survival time

[CETWRGAATRGAFQAYGC], NH2 (C-C) (CETWRGAATRGAFQAYGC-NH2; disulfide 1-18 (inferred)) [Scr3, cyclic scramble peptide of Rb9]
activity against metastatic melanoma of scramble peptides [1]: good negative control
